Reference: ChEMBL document CHEMBL3991601, “The target landscape of clinical kinase drugs” (Science, 2017)
The source made the active and inactive calls. On the calls: in the data inactive means no Kd found up to 30 µM.

Assays:
[1] = target: T1, Bifunctional phosphoribosylaminoimidazole carboxylase/phosphoribosylaminoimidazole succinocarboxamide synthetase (Homo sapiens, UniProt P22234)
T1 sequence (P22234 whole entry): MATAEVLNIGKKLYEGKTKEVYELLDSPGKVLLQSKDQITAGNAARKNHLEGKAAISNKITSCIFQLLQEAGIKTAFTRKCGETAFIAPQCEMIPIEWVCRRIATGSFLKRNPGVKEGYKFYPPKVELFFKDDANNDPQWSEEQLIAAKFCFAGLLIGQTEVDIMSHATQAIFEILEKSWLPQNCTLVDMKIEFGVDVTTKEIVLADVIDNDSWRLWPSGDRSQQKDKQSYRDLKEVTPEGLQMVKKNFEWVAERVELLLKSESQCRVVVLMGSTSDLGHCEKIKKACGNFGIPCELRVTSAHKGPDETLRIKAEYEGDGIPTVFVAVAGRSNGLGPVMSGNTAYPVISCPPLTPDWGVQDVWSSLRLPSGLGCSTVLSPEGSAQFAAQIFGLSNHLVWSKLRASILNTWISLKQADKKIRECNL

[2] = target: Serine/threonine-protein kinase MRCK alpha (Homo sapiens, UniProt Q5VT25)
Chain of Serine/threonine-protein kinase MRCK alpha (Q5VT25 whole entry): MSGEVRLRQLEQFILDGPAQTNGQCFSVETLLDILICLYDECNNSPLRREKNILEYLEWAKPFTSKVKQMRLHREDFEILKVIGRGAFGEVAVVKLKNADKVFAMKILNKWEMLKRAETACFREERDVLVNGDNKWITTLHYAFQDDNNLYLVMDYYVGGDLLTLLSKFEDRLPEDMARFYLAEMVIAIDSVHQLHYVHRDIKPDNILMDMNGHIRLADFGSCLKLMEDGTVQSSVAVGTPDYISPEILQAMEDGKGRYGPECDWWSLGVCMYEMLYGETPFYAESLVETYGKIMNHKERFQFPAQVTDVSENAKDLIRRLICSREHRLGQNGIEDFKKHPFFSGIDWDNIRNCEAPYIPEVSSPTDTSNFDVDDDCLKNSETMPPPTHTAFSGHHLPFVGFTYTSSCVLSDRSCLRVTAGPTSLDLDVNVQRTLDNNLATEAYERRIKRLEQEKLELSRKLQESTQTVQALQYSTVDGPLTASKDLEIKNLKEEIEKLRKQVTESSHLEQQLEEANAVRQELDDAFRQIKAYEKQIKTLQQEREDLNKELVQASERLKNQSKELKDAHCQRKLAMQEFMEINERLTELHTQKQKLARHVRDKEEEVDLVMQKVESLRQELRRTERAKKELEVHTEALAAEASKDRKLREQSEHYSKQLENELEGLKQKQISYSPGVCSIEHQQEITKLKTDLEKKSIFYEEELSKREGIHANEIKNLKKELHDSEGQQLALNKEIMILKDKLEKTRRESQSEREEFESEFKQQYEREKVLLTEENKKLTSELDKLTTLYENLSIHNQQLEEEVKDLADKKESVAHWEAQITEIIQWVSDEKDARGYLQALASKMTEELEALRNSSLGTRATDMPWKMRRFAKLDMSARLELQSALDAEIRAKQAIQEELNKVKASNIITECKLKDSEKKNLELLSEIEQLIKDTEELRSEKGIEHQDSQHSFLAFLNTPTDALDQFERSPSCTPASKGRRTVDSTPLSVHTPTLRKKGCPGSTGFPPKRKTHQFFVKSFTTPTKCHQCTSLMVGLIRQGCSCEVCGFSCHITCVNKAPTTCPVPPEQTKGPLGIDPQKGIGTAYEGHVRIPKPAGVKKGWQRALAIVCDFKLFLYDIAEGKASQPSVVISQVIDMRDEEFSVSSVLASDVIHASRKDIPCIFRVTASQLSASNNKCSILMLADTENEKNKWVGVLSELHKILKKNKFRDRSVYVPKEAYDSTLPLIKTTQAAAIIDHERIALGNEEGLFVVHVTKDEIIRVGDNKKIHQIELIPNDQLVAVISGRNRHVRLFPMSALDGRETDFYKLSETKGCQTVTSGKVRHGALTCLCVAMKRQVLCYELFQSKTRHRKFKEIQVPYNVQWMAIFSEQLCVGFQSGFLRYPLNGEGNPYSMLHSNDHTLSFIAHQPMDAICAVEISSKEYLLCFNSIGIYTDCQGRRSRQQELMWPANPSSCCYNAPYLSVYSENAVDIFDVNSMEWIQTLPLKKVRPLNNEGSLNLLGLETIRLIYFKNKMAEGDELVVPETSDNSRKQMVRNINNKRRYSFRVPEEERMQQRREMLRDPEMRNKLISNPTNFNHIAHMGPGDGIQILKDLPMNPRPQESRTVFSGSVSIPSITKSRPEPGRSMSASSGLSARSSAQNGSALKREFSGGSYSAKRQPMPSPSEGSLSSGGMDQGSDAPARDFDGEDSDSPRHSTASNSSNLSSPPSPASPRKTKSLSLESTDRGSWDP

[3] = target: Mitogen-activated protein kinase 1 (Homo sapiens, UniProt P28482)
Chain of Mitogen-activated protein kinase 1 (P28482 whole entry): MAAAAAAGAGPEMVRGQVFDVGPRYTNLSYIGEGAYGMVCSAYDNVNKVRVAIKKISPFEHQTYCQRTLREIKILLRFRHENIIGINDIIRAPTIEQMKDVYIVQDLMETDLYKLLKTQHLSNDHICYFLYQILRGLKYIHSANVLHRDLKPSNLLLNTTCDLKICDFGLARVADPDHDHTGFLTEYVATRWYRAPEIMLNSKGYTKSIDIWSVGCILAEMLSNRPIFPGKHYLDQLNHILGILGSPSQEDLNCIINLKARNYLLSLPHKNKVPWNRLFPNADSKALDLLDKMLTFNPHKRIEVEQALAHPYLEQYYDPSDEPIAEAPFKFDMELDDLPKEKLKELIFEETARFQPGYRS

[4] = target: Serine/threonine-protein kinase PAK 2 (Homo sapiens, UniProt Q13177)
Chain of Serine/threonine-protein kinase PAK 2 (Q13177 whole entry): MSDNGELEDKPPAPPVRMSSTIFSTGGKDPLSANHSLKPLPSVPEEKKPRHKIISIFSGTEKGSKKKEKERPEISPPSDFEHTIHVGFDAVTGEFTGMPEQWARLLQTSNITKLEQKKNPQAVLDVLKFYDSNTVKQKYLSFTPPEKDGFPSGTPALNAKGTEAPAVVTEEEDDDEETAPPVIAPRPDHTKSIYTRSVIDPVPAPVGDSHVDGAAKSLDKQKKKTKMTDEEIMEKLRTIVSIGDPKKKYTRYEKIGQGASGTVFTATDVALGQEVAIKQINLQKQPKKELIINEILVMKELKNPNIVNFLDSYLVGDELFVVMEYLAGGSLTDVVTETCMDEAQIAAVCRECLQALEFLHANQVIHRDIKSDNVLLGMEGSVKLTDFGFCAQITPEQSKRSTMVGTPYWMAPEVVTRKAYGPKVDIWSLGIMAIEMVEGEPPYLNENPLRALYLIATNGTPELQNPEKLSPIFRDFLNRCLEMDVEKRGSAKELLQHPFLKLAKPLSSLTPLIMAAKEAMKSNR

dCTP pyrophosphatase 1 = target: T2, dCTP pyrophosphatase 1 (Homo sapiens, UniProt Q9H773)
T2 sequence (Q9H773 whole entry): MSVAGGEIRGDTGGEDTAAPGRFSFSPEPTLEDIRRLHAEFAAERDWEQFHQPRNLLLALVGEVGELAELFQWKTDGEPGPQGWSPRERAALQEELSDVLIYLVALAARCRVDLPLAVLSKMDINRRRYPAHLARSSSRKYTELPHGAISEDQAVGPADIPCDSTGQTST

[5] = target: T3, Membrane-associated tyrosine- and threonine-specific cdc2-inhibitory kinase (Homo sapiens, UniProt Q99640)
T3 sequence (Q99640 whole entry): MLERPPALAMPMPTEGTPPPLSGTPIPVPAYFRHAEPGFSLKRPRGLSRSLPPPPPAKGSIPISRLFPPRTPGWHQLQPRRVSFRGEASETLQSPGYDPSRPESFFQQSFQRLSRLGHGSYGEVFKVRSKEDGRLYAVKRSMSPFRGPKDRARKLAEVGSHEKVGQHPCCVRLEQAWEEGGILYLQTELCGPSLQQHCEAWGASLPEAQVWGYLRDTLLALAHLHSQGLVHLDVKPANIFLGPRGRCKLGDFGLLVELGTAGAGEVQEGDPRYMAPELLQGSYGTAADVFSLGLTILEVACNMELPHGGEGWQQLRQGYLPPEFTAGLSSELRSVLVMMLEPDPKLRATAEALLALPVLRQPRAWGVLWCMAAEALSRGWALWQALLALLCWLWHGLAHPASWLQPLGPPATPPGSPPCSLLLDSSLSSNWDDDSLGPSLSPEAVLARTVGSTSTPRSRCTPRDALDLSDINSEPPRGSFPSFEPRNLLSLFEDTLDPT

[6] = target: T4, RNA cytidine acetyltransferase (Homo sapiens, UniProt Q9H0A0)
T4 sequence (Q9H0A0 whole entry): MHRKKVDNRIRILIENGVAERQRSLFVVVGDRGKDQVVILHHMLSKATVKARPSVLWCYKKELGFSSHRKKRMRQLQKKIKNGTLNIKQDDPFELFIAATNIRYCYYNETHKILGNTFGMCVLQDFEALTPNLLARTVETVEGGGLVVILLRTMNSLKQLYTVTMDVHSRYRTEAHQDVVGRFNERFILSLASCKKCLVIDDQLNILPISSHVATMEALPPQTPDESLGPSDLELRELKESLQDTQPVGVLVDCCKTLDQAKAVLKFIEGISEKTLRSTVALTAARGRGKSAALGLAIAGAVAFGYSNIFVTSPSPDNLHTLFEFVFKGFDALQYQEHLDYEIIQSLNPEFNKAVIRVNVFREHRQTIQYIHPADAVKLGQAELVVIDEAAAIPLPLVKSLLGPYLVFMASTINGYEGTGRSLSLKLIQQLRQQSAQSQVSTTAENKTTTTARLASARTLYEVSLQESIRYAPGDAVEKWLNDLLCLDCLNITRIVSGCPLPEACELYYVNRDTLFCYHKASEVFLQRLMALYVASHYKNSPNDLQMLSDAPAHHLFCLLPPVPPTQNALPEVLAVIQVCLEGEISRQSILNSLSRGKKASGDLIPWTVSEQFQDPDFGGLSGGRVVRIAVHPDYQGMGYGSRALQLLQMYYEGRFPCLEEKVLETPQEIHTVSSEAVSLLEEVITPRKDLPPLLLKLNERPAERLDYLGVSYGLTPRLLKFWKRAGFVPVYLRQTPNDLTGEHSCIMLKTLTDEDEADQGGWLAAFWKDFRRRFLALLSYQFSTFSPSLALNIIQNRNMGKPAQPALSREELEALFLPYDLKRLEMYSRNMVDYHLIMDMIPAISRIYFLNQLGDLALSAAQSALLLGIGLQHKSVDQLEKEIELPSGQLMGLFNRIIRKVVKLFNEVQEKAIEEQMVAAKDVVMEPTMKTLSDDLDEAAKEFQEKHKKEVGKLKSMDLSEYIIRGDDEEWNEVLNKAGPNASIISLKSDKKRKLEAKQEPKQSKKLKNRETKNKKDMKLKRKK

[7] = target: T5, Very long-chain specific acyl-CoA dehydrogenase, mitochondrial (Homo sapiens, UniProt P49748)
T5 sequence (P49748 whole entry): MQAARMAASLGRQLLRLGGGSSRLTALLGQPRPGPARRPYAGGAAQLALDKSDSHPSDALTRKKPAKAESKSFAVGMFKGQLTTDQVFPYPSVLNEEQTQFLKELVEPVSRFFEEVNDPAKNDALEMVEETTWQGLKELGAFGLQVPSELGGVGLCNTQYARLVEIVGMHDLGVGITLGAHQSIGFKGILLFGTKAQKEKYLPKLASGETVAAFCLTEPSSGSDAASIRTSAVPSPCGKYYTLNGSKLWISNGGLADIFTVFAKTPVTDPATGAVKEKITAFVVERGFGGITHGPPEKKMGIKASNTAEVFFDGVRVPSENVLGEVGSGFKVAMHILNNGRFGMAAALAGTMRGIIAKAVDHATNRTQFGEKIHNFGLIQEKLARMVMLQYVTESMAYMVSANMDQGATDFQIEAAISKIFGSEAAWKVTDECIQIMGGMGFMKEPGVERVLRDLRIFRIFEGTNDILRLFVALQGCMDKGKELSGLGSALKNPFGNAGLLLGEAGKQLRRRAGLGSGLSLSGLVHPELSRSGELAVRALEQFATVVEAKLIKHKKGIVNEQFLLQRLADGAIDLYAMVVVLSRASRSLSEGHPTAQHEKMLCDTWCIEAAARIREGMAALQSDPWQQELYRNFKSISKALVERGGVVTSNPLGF

| Kd [1] | Kd [2] | Kd [3] | Kd [4] | Kd (dCTP pyrophosphatase 1) | Kd [5] | Kd [6] | Kd [7] | Compound |
| --- | --- | --- | --- | --- | --- | --- | --- | --- |
| > 30 µM (inactive) | > 30 µM (inactive) | > 30 µM (inactive) | > 30 µM (inactive) | > 30 µM (inactive) | > 30 µM (inactive) | > 30 µM (inactive) | > 30 µM (inactive) | Cc1cnc(NC(=O)Nc2cc(Br)c(C)cc2OC[C@@H]2CNCCO2)cn1 [RABUSERTIB] |
| > 30 µM (inactive) | > 30 µM (inactive) | > 30 µM (inactive) | > 30 µM (inactive) | > 30 µM (inactive) | > 30 µM (inactive) | > 30 µM (inactive) | > 30 µM (inactive) | CO[C@H]1C[C@@H]2CC[C@@H](C)[C@@](O)(O2)C(=O)C(=O)N2CCCC[C@H]2C(=O)O[C@H]([C@H](C)C[C@@H]2CC[C@@H](OP(C)(C)=O)[C@H](OC)C2)CC(=O)[C@H](C)/C=C(\C)[C@@H](O)[C@@H](OC)C(=O)[C@H](C)C[C@H](C)/C=C/C=C/C=C/1C [RIDAFOROLIMUS] |
| > 30 µM (inactive) | > 30 µM (inactive) | > 30 µM (inactive) | > 30 µM (inactive) | > 30 µM (inactive) | > 30 µM (inactive) | > 30 µM (inactive) | > 30 µM (inactive) | N#CC1(c2ccc(NC(=O)c3cccnc3NCc3ccncc3)cc2)CCCC1 [RIVOCERANIB] |
| > 30 µM (inactive) | 0.01 µM (active) | > 30 µM (inactive) | > 30 µM (inactive) | > 30 µM (inactive) | > 30 µM (inactive) | > 30 µM (inactive) | > 30 µM (inactive) | O=c1[nH]ccc2cc(OC3CCNCC3)ccc12 [SAR-407899 FREE BASE] |
| > 30 µM (inactive) | > 30 µM (inactive) | > 30 µM (inactive) | > 30 µM (inactive) | > 30 µM (inactive) | > 30 µM (inactive) | > 30 µM (inactive) | > 30 µM (inactive) | Cn1cc(-c2cnn3c(N)c(Br)c([C@@H]4CCCNC4)nc23)cn1 [SCH-900776] |
| > 30 µM (inactive) | > 30 µM (inactive) | > 30 µM (inactive) | > 30 µM (inactive) | > 30 µM (inactive) | > 30 µM (inactive) | > 30 µM (inactive) | > 30 µM (inactive) | CO[C@H]1C[C@@H]2CC[C@@H](C)[C@@](O)(O2)C(=O)C(=O)N2CCCC[C@H]2C(=O)O[C@H]([C@H](C)C[C@@H]2CC[C@@H](O)[C@H](OC)C2)CC(=O)[C@H](C)/C=C(\C)[C@@H](O)[C@@H](OC)C(=O)[C@H](C)C[C@H](C)/C=C/C=C/C=C/1C [SIROLIMUS] |
| > 30 µM (inactive) | > 30 µM (inactive) | > 30 µM (inactive) | > 30 µM (inactive) | > 30 µM (inactive) | > 30 µM (inactive) | > 30 µM (inactive) | > 30 µM (inactive) | CCS(=O)(=O)c1cccc(-c2cc(C(=O)NC3CCN(C)CC3)c(C)c3[nH]c4ncc(C)cc4c23)c1 [TAK-901] |
| > 30 µM (inactive) | > 30 µM (inactive) | > 30 µM (inactive) | > 30 µM (inactive) | > 30 µM (inactive) | > 30 µM (inactive) | > 30 µM (inactive) | > 30 µM (inactive) | CO[C@H]1C[C@@H]2CC[C@@H](C)[C@@](O)(O2)C(=O)C(=O)N2CCCC[C@H]2C(=O)O[C@H]([C@H](C)C[C@@H]2CC[C@@H](OC(=O)C(C)(CO)CO)[C@H](OC)C2)CC(=O)[C@H](C)/C=C(\C)[C@@H](O)[C@@H](OC)C(=O)[C@H](C)C[C@H](C)/C=C/C=C/C=C/1C [TEMSIROLIMUS] |
| > 30 µM (inactive) | > 30 µM (inactive) | > 30 µM (inactive) | > 30 µM (inactive) | > 30 µM (inactive) | > 30 µM (inactive) | > 30 µM (inactive) | > 30 µM (inactive) | COc1cc2c(Nc3ccc(Cl)c(Cl)c3F)ncnc2cc1OC[C@@H]1C[C@@H]2CN(C)C[C@@H]2C1 [TESEVATINIB] |
| > 30 µM (inactive) | > 30 µM (inactive) | > 30 µM (inactive) | > 30 µM (inactive) | > 30 µM (inactive) | > 30 µM (inactive) | > 30 µM (inactive) | > 30 µM (inactive) | O=C(Cc1ccc(-c2ccc(OCCN3CCOCC3)cc2)cn1)NCc1ccccc1 [TIRBANIBULIN] |
| > 30 µM (inactive) | > 30 µM (inactive) | > 30 µM (inactive) | > 30 µM (inactive) | > 30 µM (inactive) | > 30 µM (inactive) | > 30 µM (inactive) | > 30 µM (inactive) | O=C1NC(=O)[C@@H](c2cn3c4c(cccc24)CCC3)[C@@H]1c1c[nH]c2ccccc12 [TIVANTINIB] |
| > 30 µM (inactive) | > 30 µM (inactive) | > 30 µM (inactive) | > 30 µM (inactive) | > 30 µM (inactive) | > 30 µM (inactive) | > 30 µM (inactive) | > 30 µM (inactive) | C[C@@H](NC(=O)c1ncnc(N)c1Cl)c1ncc(C(=O)Nc2cc(C(F)(F)F)c(Cl)cn2)s1 [TOVORAFENIB] |

| Compound | Kd [1] | Kd [2] | Kd [3] | Kd [4] | Kd (dCTP pyrophosphatase 1) | Kd [5] | Kd [6] | Kd [7] |
| --- | --- | --- | --- | --- | --- | --- | --- | --- |
| CNC(=O)c1cc(Oc2ccc(NC(=O)Nc3cc(C(C)(C)C)nn3-c3ccc4ncccc4c3)c(F)c2)ccn1 [REBASTINIB] | > 30 µM (inactive) | > 30 µM (inactive) | > 30 µM (inactive) | > 30 µM (inactive) | > 30 µM (inactive) | > 30 µM (inactive) | > 30 µM (inactive) | > 30 µM (inactive) |
| Cc1cc(Nc2ncnc3ccc(NC4=NC(C)(C)CO4)cc23)ccc1Oc1ccn2ncnc2c1 [TUCATINIB] | > 30 µM (inactive) | > 30 µM (inactive) | > 30 µM (inactive) | > 30 µM (inactive) | > 30 µM (inactive) | > 30 µM (inactive) | > 30 µM (inactive) | > 30 µM (inactive) |
